Data as given in paper PMC2746433 (Biochemistry, 2009).
Read-outs that look alike come from different tables or passages of the source. Residues, ends and D or L forms follow the SMILES beside them. No end group written: not given here. fluorescein = fluorescein (label on the N-terminus)

Assays:
[1] = target: ExoI/SSB/ssDNA ternary complex (Escherichia coli, UniProt P04995); assay: Exonuclease assay: inhibition of SSB-stimulated ExoI nuclease activity; format: biochemical, E. coli
E. coli ExoI = E. coli ExoI (Escherichia coli, UniProt P04995); assay: Peptide competition-binding assay
[2] = target: T1, E. coli Exonuclease I (E. coli) (UniProt P04995); assay: fluorescence polarisation
T1 sequence: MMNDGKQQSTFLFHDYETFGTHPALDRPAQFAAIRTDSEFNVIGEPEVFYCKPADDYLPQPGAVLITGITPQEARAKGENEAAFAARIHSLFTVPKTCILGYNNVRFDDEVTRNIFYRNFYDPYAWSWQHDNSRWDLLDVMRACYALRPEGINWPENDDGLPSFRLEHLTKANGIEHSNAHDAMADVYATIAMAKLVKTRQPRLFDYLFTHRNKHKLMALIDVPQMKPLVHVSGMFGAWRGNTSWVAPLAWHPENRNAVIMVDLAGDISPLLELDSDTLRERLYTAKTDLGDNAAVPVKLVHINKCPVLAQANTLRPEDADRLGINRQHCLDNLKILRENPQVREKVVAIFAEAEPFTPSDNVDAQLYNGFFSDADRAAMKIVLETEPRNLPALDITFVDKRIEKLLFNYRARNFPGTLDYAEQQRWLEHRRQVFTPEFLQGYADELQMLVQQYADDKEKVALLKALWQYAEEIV

E. coli Exonuclease I [3] = target: T2, E. coli Exonuclease I (E. coli, UniProt P04995 1-475); assay: fluorescence polarisation
T2 sequence (looked up): T1 sequence

E. coli Exonuclease I [4] = target: T2, E. coli Exonuclease I
E. coli Exonuclease I [5] = target: T2, E. coli Exonuclease I; assay: fluorescence polarisation; remark: listed apart in the source

| Molecule | IC50 [1] [µM] | IC50 (E. coli ExoI) [µM] | K_(bind) (apparent inhibitor dissociation constant) (E. coli Exonuclease I [3]) [µM] | further results |
| --- | --- | --- | --- | --- |
| CC[C@H](C)[C@H](NC(=O)[C@@H](N)Cc1c[nH]c2ccccc12)C(=O)N1CCC[C@H]1C(=O)N[C@@H](Cc1ccccc1)C(=O)O [WIPF] (H-WIPF-OH) | > 100 | 252 ± 12 |  |  |
| SSB-Ct Phe-to-Tyr variant peptide … |  |  |  | IC50 [2]: 382 µM; K (bind) (apparent inhibitor dissociation constant) [2]: 79 µM |
| SSB-Ct Pro-to-Ser variant peptide … |  |  |  | IC50 [2]: 52.9 µM; K (bind) (apparent inhibitor dissociation constant) [2]: 10.8 µM |
| WDDDIPF [WDDDIPF] | ~40 |  |  |  |
| WDDIPF [WDDIPF] | ~40 |  |  |  |
| WDFDDDIPF [WDFDDDIPF] | ~1 |  |  |  |
| WDIPF [WDIPF, Trp-Asp-Ile-Pro-Phe] | > 100 |  |  |  |
| WFDDDIPF [WFDDDIPF] | ~10 |  |  |  |
| WMAFAAAIPF [WMAFAAAIPF] | ~20 | 169 ± 15 |  |  |
| WMAFDDDIPF [WMAFDDDIPF] | ~1 | 11.6 ± 0.9 |  |  |
| WMDFADDIPF [WMDFADDIPF] | ~1 | 8.5 ± 0.3 |  |  |
| WMDFDADIPF [WMDFDADIPF] | ~1 | 6.7 ± 0.3 |  |  |
| WMDFDDAIPF [WMDFDDAIPF] | ~1 | 9.3 ± 0.3 |  |  |
| WMDFDDD [WMDFDDD] | ~40 | > 1000 |  |  |
| WMDFDDDI [WMDFDDDI] | ~40 | > 1000 |  |  |
| WMDFDDDIP [WMDFDDDIP] | ~40 | > 1000 |  |  |
| WMDFDDDIPF [WMDFDDDIPF, Trp-Met-Asp-Phe-Asp-Asp-Asp-Ile-Pro-Phe] | ~1 |  |  |  |
| WMDFDDDIPY [WMDFDDDIPY] | ~10 | 382 ± 41 |  |  |
| WMDFDDDISF [WMDFDDDISF] | ~10 | 52.9 ± 3.5 |  |  |
| WDFDDDIPF [SSB-Ct N-terminal truncation peptide WDFDDDIPF] |  |  | 0.7 ± 0.1 | IC50 (E. coli Exonuclease I [3]): 4.3 ± 0.1 µM |
| WMDFDDDI [SSB-Ct C-terminal truncation peptide WMDFDDDI] |  |  | > 200 |  |
| WDDDIPF [SSB-Ct N-terminal truncation peptide WDDDIPF] |  |  | 5.1 ± 0.8 | IC50 (E. coli Exonuclease I [3]): 25.3 ± 0.9 µM |
| WDDIPF [SSB-Ct N-terminal truncation peptide WDDIPF] |  |  | 6.8 ± 0.1 | IC50 (E. coli Exonuclease I [3]): 33.5 ± 2.6 µM |
| WDIPF [SSB-Ct N-terminal truncation peptide WDIPF] |  |  | 16.2 ± 0.6 | IC50 (E. coli Exonuclease I [3]): 79.1 ± 2.9 µM |
| WMDFDDD [SSB-Ct C-terminal truncation peptide WMDFDDD] |  |  | > 200 |  |
| WIPF [SSB-Ct N-terminal truncation peptide WIPF] |  |  |  | K (bind) (apparent inhibitor dissociation constant) [2]: 52 µM |
| WMDFDDDIP [SSB-Ct C-terminal truncation peptide WMDFDDDIP] |  |  | > 200 |  |
| fluorescein-WMDFDDDIPF [F-SSB-Ct (SSB-Ct with an N-terminal fluorescein)] |  |  |  | Kd (E. coli Exonuclease I [4]): 0.178 ± 0.01 µM; Kd (E. coli Exonuclease I [5]): 0.261 ± 0.022 µM |
| WFDDDIPF [SSB-Ct N-terminal truncation peptide WFDDDIPF] |  |  | 2.3 ± 0.1 | IC50 (E. coli Exonuclease I [3]): 12.1 ± 0.7 µM |
| WMDFDDDIPF [SSB-Ct peptide WMDFDDDIPF (wild type)] |  |  | 0.9 ± 0.1 | IC50 (E. coli Exonuclease I [3]): 5.2 ± 0.2 µM |
